Legend:
Format in all cases: in vivo
barnyard grass (Eo) [1] = test: Test Example 1: herbicidal effects by flooded paddy field treatment; set-up: herbicidal effects, Eo (barnyard grass):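 0-5 growth inhibition grade; 5 = over 90%; 4 = 70-90%; 3 = 50-70%; 2 = 30-50%; 1 = 10-30%; 0 = under 10%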; details: dose 100 g active ingredient per 10 ares, examined on the 21st day after treatment, standards of Table 44
Procedure, shortened: (§1)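 Flooded paddy pre-emergence test: sowing into puddled soil under 3 cm water, then dropwise water-surface treatment the following day with diluted wettable powder at 100 g active ingredient per 10 ares. Greenhouse cultivation followed, and weeds were rated against a standard scale at 21 days.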

monochoria (Mo) [2] = test: as above; set-up: herbicidal effects, Mo (monochoria):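 0-5 growth inhibition grade; 5 = over 90%; 4 = 70-90%; 3 = 50-70%; 2 = 30-50%; 1 = 10-30%; 0 = under 10%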; details: dose 100 g active ingredient per 10 ares, examined on the 21st day after treatment, standards of Table 44
Procedure, shortened: as §1

barnyard grass (Ec) = test: Test Example 2: herbicidal effects by upland soil treatment; set-up: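 0-5 growth inhibition grade; 5 = over 90%; 4 = 70-90%; 3 = 50-70%; 2 = 30-50%; 1 = 10-30%; 0 = under 10%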; details: dose 100 g active ingredient per 10 ares, examined on the 21st day after treatment
Procedure, shortened: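 Pre-emergence test: barnyard grass and green foxtail sown in upland soil, then soil surface sprayed with wettable-powder formulation at 100 g active ingredient per 10 ares (100 l per 10 ares). Grown in greenhouse; herbicidal effect scored on a rating scale 21 days after treatment.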

monochoria (Mo) [3] = test: Test Example 4: selectivity for a crop plant by flooded paddy field treatment; set-up: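 0-5 growth inhibition grade; 5 = over 90%; 4 = 70-90%; 3 = 50-70%; 2 = 30-50%; 1 = 10-30%; 0 = under 10%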; details: monochoria, dose 25 gai/10a, 21st day after treatment, index per Table 44
Experimental: (§2) In a 100 cm^2 plastic pot, a paddy field soil was filled and paddled. Then, seeds of barnyard grass (Eo) and monochoria (Mo) were sown, and rice (Or) of second leaf stage was transplanted, and water was introduced to a depth of 3 cm. Next day, a wettable powder prepared in accordance with Formulation Example 1 was diluted with water and dropwise applied to the water surface. The dose was 25 g of the active ingredient per 10 ares. Thereafter, cultivation was carried out in a green house, and on the 21st day after the treatment, the herbicidal effects were examined in accordance with the standards of Table 44.

rice (Or) = test: as above; set-up: scale not given here; details: rice transplanted at second leaf stage, dose 25 gai/10a, 21st day after treatment, index per Table 44
Experimental: as §2

barnyard grass (Eo) [4] = test: as above; set-up: scale not given here; details: barnyard grass, dose 25 gai/10a, 21st day after treatment, index per Table 44
Experimental: as §2

| SMILES | herbicidal effects, Eo (barnyard grass) (barnyard grass (Eo) [1]) | herbicidal effects, Mo (monochoria) (monochoria (Mo) [2]) | Ec (herbicidal effects, index) (barnyard grass (Ec)) | Mo (herbicidal effect index) (monochoria (Mo) [3]) | Or (herbicidal effect index on crop) (rice (Or)) | Eo (herbicidal effect index) (barnyard grass (Eo) [4]) |
| --- | --- | --- | --- | --- | --- | --- |
| CCN(C(=O)N(C)C(c1cncnc1C(F)(F)F)C(C)C)c1ccccc1 (racemic) [1-425] | 5 | 5 | 5 | 5 | 1 | 5 |
| CC(C)C(c1cncnc1C(F)(F)Cl)N(C)C(=O)OCc1ccccc1 (racemic) [1-639] | 5 | 5 | 5 | 4 | 1 | 5 |
| CN(C(=O)Cc1cccs1)C(c1cncnc1C(F)(F)F)C1(C)CC1 (racemic) [2-55] | 5 | 5 | 5 | 5 | 1 | 5 |
| CCCc1ncncc1C(CCC)N(C)C(=O)Cc1ccc(C)cc1 (racemic) [1-495] | 5 | 5 | 5 | 5 | 0 | 5 |
| CCN(C(=O)Cc1cccs1)C(c1cncnc1C(F)F)C(C)C (racemic) [2-7] | 5 | 5 | 5 | 5 | 1 | 5 |
| Cc1ccc(CC(=O)N(C)C(c2ccsc2)c2cncnc2C(F)(F)F)cc1 (racemic) [1-443] | 5 | 5 | 5 | 5 | 1 | 5 |
| C#CCN(C(=O)Cc1ccc(Cl)cc1)C(CCC)c1cncnc1CC (racemic) [1-608] | 5 | 5 | 5 | 5 | 1 | 5 |
| Cc1ccc(CC(=O)N(C)C(c2ccccc2)c2cncnc2C(F)(F)F)s1 (racemic) [2-32] | 5 | 5 | 5 | 5 | 1 | 5 |
| CC(C)C(c1cncnc1C(F)(F)F)N(C)C(=O)Cc1ccsc1 (racemic) [2-2] | 5 | 5 | 5 | 5 | 1 | 5 |
| COC(C)(OC)C(c1cncnc1C(C)C)N(C)C(=O)Cc1ccc(Cl)cc1 (racemic) [1-511] | 5 | 5 | 4 | 5 | 0 | 5 |
| CN(C(=O)Cc1ccc(F)cc1)C(c1cccs1)c1cncnc1C(F)(F)F (racemic) [1-234] | 5 | 5 | 5 | 5 | 1 | 5 |
| CN(C(=O)Cc1ccc(C(F)(F)F)cc1)C(c1ccccc1)c1cncnc1C(F)(F)F (racemic) [1-306] | 5 | 5 | 5 | 5 | 1 | 5 |
| C#CCN(C(=O)N(C)C(c1cncnc1C(F)(F)F)C(C)C)c1ccc(F)cc1 (racemic) [1-533] | 5 | 5 | 5 | 5 | 1 | 5 |
| CCN(C(=O)Cc1ccc(Cl)cc1F)C(c1cncnc1C(F)(F)F)C(C)C (racemic) [1-321] | 5 | 5 | 5 | 5 | 1 | 5 |
